Our source for the viability, T/C and IC50 values is PubChem BioAssay AID2060496 (Molecular Pharmacology Branch, DTP, NCI, 2025).

The structures appear in SMILES notation. Several values for one entry are separate records, joined by “and”; a condition that tells them apart may be missing. Equal values may be shown once.

The test system of the test is 276233-004-R-J1-PDC complex spheroid viability. The test can be described thus: Anticancer human tumor 276233-004-R-J1-PDC patient-derived colon adenocarcinoma cell line growth inhibition [GQUAD]. Particulars: for viability, T/C: stronger effect = lower value. From the text:
DNA G-quadruplex Stabilizer Agents in Combinations in Complex Spheroids
A high-throughput screen of multi-cell type tumor spheroids was designed to identify active combinations of DNA G-quadruplex stabilizer agents and targeted small molecules. Complex spheroids include a stromal component modeled by human endothelial cells (HUVEC) and fibroblasts modeled by human mesenchymal stem cells (MSCs). The concentration ranges selected for each drug and investigational agent were based upon clinically achievable concentrations if the clinical Cmax of the agent was known.
Compounds. The drugs and investigational agents: pidnarulex (CX-5461; NSC782164), APTO-253 (NSC789042), BRACO-19 (NSC847499), peposertib (NSC802822), ceralasertib (NSC780249), elimusertib (NSC800525), camonsertib (NSC841442), AZD-1390 (NSC803789), olaparib (NSC753686), talazoparib (NSC767125), ART-558 (NSC835418), sotorasib (NSC818433), MRTX-1133 (NSC836407), SN-38 (NSC673596), topotecan (NSC609699), etoposide (NSC141540), doxorubicin (NSC123127), gemcitabine (NSC613327), 5-fluorouracil (NSC19893), paclitaxel (NSC125973), vemurafenib (NSC761431), panobinostat (NSC761190), R-306465 (JNJ-16241199; NSC773264), adavosertib (NSC754352), TP-3654 (NSC805149), carboplatin (NSC241240), KSQ-4279 (NSC840948), and staurosporine (NSC755774) were obtained from the National Cancer Institute (NCI) Developmental Therapeutics Program Chemical Repository (34). The FDA-approved anticancer drug set is available from the NCI Developmental Therapeutics Program. […] The stock solutions were prepared in dimethyl sulfoxide (DMSO, Sigma-Aldrich, St. Louis, MO, cat. D2650) at 800-fold the tested concentration and stored at -70 degrees C prior to their use. All drugs and investigational agents were tested over a range starting from a high concentration at or near the clinical Cmax and decreasing in half-log increments. If the clinical Cmax for an agent had not been determined, the highest concentration tested was 10 microM.
2.3 Cell Culture. All cells were maintained in an incubator at 37 degrees C and 5% CO2 with 95% humidity. The PDC lines were cultured according to standard operating procedures established by the NCI PDMR. All PDCs were thawed and cultured in Matrigel-coated flasks prepared with a working solution of 1X Ham's F-12 nutrient mix, without supplementation (Invitrogen, cat. 11765054), 100 U/mL penicillin-streptomycin (Invitrogen, cat. 15140122), and 2.5% Matrigel (Corning Inc., cat. 354248) for the first three passages. The 857933-349-R-J2-PDC line was cultured in 6C/Colon 1B media, which includes advanced DMEM/F-12 (Thermo Fisher Scientific, cat. 12634028), 10 mM HEPES (Thermo Fisher Scientific, cat. 15630080), 1X GlutaMAX supplement (Thermo Fisher Scientific, cat. 35050061), 0.1 mg/mL primocin (InvivoGen, cat. ant-pm-2), 10% defined fetal bovine serum, heat inactivated (HyClone Laboratories Inc., cat. SH30070.03HI), 50% L-WRN conditioned media (ATCC, cat. CRL-3276), 1.25 mM N-Acetyl-L-cysteine (Sigma-Aldrich, cat. A9165), 10 mM nicotinamide (Sigma-Aldrich, cat. N0636), 1X B-27 supplement (Thermo Fisher Scientific, cat. 17504044), 1X N-2 supplement (Thermo Fisher Scientific, cat. 17502048), 10 microM Y-27632 dihydrochloride (Tocris Bioscience, cat. 1254), and 50 ng/mL human EGF recombinant protein (Thermo Fisher Scientific, cat. PHG0311). The 485176-168-R4-J1-PDC line was cultured in Panc media, which includes all 6C/Colon 1B media components plus 100 ng/mL human FGF-10 (Thermo Fisher Scientific, cat. 100-26), 500 nM SB-431542 (Selleckchem, cat. S1067), and gastrin (Tocris, cat. 3006).
[…]
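Note: spheroids exposed to drugs for seven days.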
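Throughout, for viability, T/C: 100% = DMSO vehicle control viability.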

For the compound `COc1ncnc(C2CC2)c1-c1ncc2cnn(Cc3ccc(-c4nc(C(F)(F)F)cn4C(C)C)cc3)c2n1`, the viability, T/C runs as follows: (compound 0.0316 µM) 86% and 85.2% and 92%; (compound 0.1 µM) 69% and 77.1% and 72.8%; (compound 0.316 µM) 84.5% and 105% and 85.5%; (compound 1 µM) 82% and 82.4% and 85.8%; (compound 3.16 µM) 94.6% and 92.9% and 82.1%; (compound 10 µM) 98% and 75.9% and 97.7%. Moreover, for the setting “curve of compound”, the IC50 was more than 10 µM.

As for `CCc1c2c(nc3ccc(O)cc13)-c1cc3c(c(=O)n1C2)COC(=O)[C@]3(O)CC`, the viability, T/C runs as follows: (compound 0.000999 µM) 98.6% and 89.7% and 104%; (compound 0.00316 µM) 93.7% and 94.5% and 92.8%; (compound 0.00999 µM) 120% and 88.8% and 82.7%; (compound 0.0316 µM) 89.3% and 117% and 90.7%; (compound 0.0999 µM) 98.1% and 103% and 110%; (compound 0.316 µM) 92.2% and 108% and 95.1%. For the same compound, the IC50 (curve of compound) is more than 0.316 µM.

As for `COc1ncnc(C2CC2)c1-c1ncc2cnn(Cc3ccc(-c4nc(C(F)(F)F)cn4C(C)C)cc3)c2n1` + Cc1cnc(CNC(=O)c2c(=O)c3ccc(N4CCCN(C)CC4)nc3n3c2sc2ccccc23)cn1, the IC50 reads like this: (curve of first compound, second compound 0.0316 µM) more than 10 µM; (curve of first compound, second compound 0.1 µM) more than 10 µM; (curve of first compound, second compound 0.316 µM) more than 10 µM; (curve of first compound, second compound 1 µM) more than 10 µM; (curve of first compound, second compound 3.16 µM) more than 10 µM; (curve of first compound, second compound 10 µM) more than 10 µM. The viability, T/C (second compound 0.0316 µM, first compound 0.0316 µM) was 81.9%; the viability, T/C (second compound 0.0316 µM, first compound 0.1 µM) was 77.1%; the viability, T/C (second compound 0.0316 µM, first compound 0.316 µM) was 66.1%; the viability, T/C (second compound 0.0316 µM, first compound 1 µM) was 79.7%; the viability, T/C (second compound 0.0316 µM, first compound 3.16 µM) was 86.2%; the viability, T/C (second compound 0.0316 µM, first compound 10 µM) is 89%. Also, the viability, T/C (second compound 0.1 µM, first compound 0.0316 µM) is 76.2%; the viability, T/C (second compound 0.1 µM, first compound 0.1 µM) is 95.5%; the viability, T/C (second compound 0.1 µM, first compound 0.316 µM) is 83%; the viability, T/C (second compound 0.1 µM, first compound 1 µM) is 84.2%; the viability, T/C (second compound 0.1 µM, first compound 3.16 µM) is 76.9%; the viability, T/C (second compound 0.1 µM, first compound 10 µM) was 84.5%. Besides, the viability, T/C (second compound 0.316 µM, first compound 0.0316 µM) was 87.3%; the viability, T/C (second compound 0.316 µM, first compound 0.1 µM) was 91.2%; the viability, T/C (second compound 0.316 µM, first compound 0.316 µM) is 83.4%; the viability, T/C (second compound 0.316 µM, first compound 1 µM) was 87.9%; the viability, T/C (second compound 0.316 µM, first compound 3.16 µM) is 78.4%; the viability, T/C (second compound 0.316 µM, first compound 10 µM) is 86.4%. The viability, T/C runs as follows: (second compound 1 µM, first compound 0.0316 µM) 84.6%; (second compound 1 µM, first compound 0.1 µM) 81.4%; (second compound 1 µM, first compound 0.316 µM) 81.5%; (second compound 1 µM, first compound 1 µM) 74.5%; (second compound 1 µM, first compound 3.16 µM) 74.8%; (second compound 1 µM, first compound 10 µM) 89.6%. Further, the viability, T/C was 76.1% (second compound 3.16 µM, first compound 0.0316 µM); 65.1% (second compound 3.16 µM, first compound 0.1 µM); 80.5% (second compound 3.16 µM, first compound 0.316 µM); 62.4% (second compound 3.16 µM, first compound 1 µM); 64.5% (second compound 3.16 µM, first compound 3.16 µM); 75.5% (second compound 3.16 µM, first compound 10 µM). For the same compound, the viability, T/C by setting is: (second compound 10 µM, first compound 0.0316 µM) 67.9%; (second compound 10 µM, first compound 0.1 µM) 60.9%; (second compound 10 µM, first compound 0.316 µM) 64.3%; (second compound 10 µM, first compound 1 µM) 62.9%; (second compound 10 µM, first compound 3.16 µM) 69.6%; (second compound 10 µM, first compound 10 µM) 65.2%.

For `C=CC(=O)N1CCN(c2nc(=O)n(-c3c(C)ccnc3C(C)C)c3nc(-c4c(O)cccc4F)c(F)cc23)C(C)C1` (configuration not stated), the viability, T/C was 107% and 92.8% and 91.6% (compound 0.0316 µM); 89.2% and 119% and 77.8% (compound 0.1 µM); 102% and 80.8% and 89% (compound 0.316 µM); 96.7% and 101% and 87.3% (compound 1 µM); 98.4% and 92.5% and 85.8% (compound 3.16 µM); 91.2% and 93.1% and 84.2% (compound 10 µM). The IC50 (curve of compound) is more than 10 µM.

For `COc1cc(C2c3cc4c(cc3C(OC3OC5COC(C)OC5C(O)C3O)C3COC(=O)C23)OCO4)cc(OC)c1O` (configuration not stated), the viability, T/C is, setting by setting: (compound 0.0316 µM) 94.5% and 86% and 83.5%; (compound 0.1 µM) 85% and 92% and 84.5%; (compound 0.316 µM) 88% and 89.3% and 89.8%; (compound 1 µM) 81.9% and 83.7% and 91%; (compound 3.16 µM) 99% and 101% and 88.6%; (compound 10 µM) 92.4% and 79.9% and 85%. Besides, the IC50 (curve of compound) is more than 10 µM.

For `COc1ccc([C@@H](O)c2cc(-c3ncnc4cc(N5CCOCC5)ccc34)c(F)cc2Cl)nn1`, the viability, T/C was 91.6% and 98.8% and 86% (compound 0.0316 µM); 81% and 98.4% and 55% (compound 0.1 µM); 95.6% and 97.8% and 80.1% (compound 0.316 µM); 75.1% and 80.2% and 68.1% (compound 1 µM); 75.5% and 68% and 68.3% (compound 3.16 µM); 61.6% and 65.6% and 59.3% (compound 10 µM). Further, where the note is “curve of compound”, the IC50 is more than 10 µM.
